Assay results published in article PMC6941952, “A homogeneous bioluminescent immunoassay to probe cellular signaling pathway regulation” (Communications Biology, 2020).
Where “and” joins values, the source holds several entries; their conditions need not be identical. Identical values can stand only once.

Test system: total IκBα
Assay: NanoBiT cell-based immunoassay, total IκBα in MCF-7 cells
Design: species or system human
Settings: with CHX; for IkB Average: background subtracted
Protocol: Prior to NanoBiT Cell-Based Immunoassay, 50,000 cells were seeded in 160 µl of complete growth media per well of a 96-well plate and incubated overnight. […] If necessary, the cell culture media were replaced with serum-free media after the cells were stably adherent on the plate and incubated overnight. To treat cells with activators or inhibitors, medium was changed to 30 µl of medium containing inhibitors. If activation of a specific pathway is needed, the cells were stimulated with 10 µl of medium containing activators. To lyse the cells, 10 µl of lysis buffer containing 0.1% digitonin diluted in 1X immunoassay buffer with protease and phosphatase inhibitors was added and the plates were mixed vigorously for 20 min. Then, 50 µl of an antibody mix containing two primary antibodies against the target protein and NanoBiT detecting antibodies (0.3 µl each per well), diluted in 1X immunoassay buffer was added to the lysates. The plates were incubated at 23 °C for 90 min, followed by the addition of 25 µl of Nano-Glo® reagent consisting of Nano-Glo® Luciferase Assay Substrate mixed with 1X immunoassay buffer. Luminescence was measured using a plate-reading luminometer.
Single dose or dose response inhibitor treatments were performed prior to activation of the pathways as follows. For IκBα, the cells were treated in 30 µl medium with IKK16 or MG132 for 60 min before the addition of 10 µl of DMEM containing appropriate concentration of TNFα. To measure phosphorylation of AKT or STAT3, the corresponding NanoBiT immunoassays were developed with MCF-7 or A431 cells, respectively, according the same scheme used to develop the IκBα assay using the primary antibodies for AKT and STAT3 described in the reagents section. […] Treatment with LY294002 was performed in 30 µl medium and cells were incubated for 60 min before the addition of 1 µM Insulin. To measure STAT3 phosphorylation, A431 cells were incubated overnight in DMEM medium without serum. […] After addition of the stimulators, the cells were incubated for additional times as follows. IκBα phosphorylation and degradation analyses required both time courses and single time points as described in figures. […] The NanoBiT immunoassay protocol was followed as described above.
All 96-well assay plates were read using a GloMax® 96 Microplate Luminometer from Promega. The instrument was set to 0.5 s integration time. In order to obtain net change of signal, the reagent background values (signal from the well containing all reagent except primary antibodies) were subtracted from the sample values. To plot and analyze the data, Microsoft Excel and GraphPad Prism® Software were used. IC50 values were determined by using a nonlinear regression fit to a sigmoidal dose response (variable slope).

## C[C@@H]1C[C@@H]([C@H](O)CC2CC(=O)NC(=O)C2)C(=O)[C@@H](C)C1 [CHX]
TNF 0 min
  IKB with CHX Raw data: 55360 and 57660 and 54100 and 60230
  IKB with CHX Subtract reagent background: 43590 and 45890 and 42330 and 48460
  IkB Average: 45068
TNF 5 min
  IKB with CHX Raw data: 58100 and 62010 and 65600 and 63320
  IKB with CHX Subtract reagent background: 46330 and 50240 and 53830 and 51550
  IkB Average: 50488
TNF 10 min
  IKB with CHX Raw data: 40310 and 45450 and 45320 and 45290
  IKB with CHX Subtract reagent background: 28540 and 33680 and 33550 and 33520
  IkB Average: 32323
TNF 20 min
  IKB with CHX Raw data: 19760 and 23860 and 25280
  IKB with CHX Subtract reagent background: 7990 and 12090 and 13510
  IkB Average: 10395
TNF 30 min
  IKB with CHX Raw data: 17770 and 17940 and 21410 and 21590
  IKB with CHX Subtract reagent background: 6000 and 6170 and 9640 and 9820
  IkB Average: 7908
TNF 40 min
  IKB with CHX Raw data: 17270 and 17950 and 20500 and 19500
  IKB with CHX Subtract reagent background: 5500 and 6180 and 8730 and 7730
  IkB Average: 7035
TNF 60 min
  IKB with CHX Raw data: 18390 and 17430 and 19370 and 18920
  IKB with CHX Subtract reagent background: 6620 and 5660 and 7600 and 7150
  IkB Average: 6758
TNF 80 min
  IKB with CHX Raw data: 19070 and 18960 and 19260 and 19280
  IKB with CHX Subtract reagent background: 7300 and 7190 and 7490 and 7510
  IkB Average: 7373
TNF 100 min
  IKB with CHX Raw data: 19610 and 18970 and 19990 and 19730
  IKB with CHX Subtract reagent background: 7840 and 7200 and 8220 and 7960
  IkB Average: 7805
TNF 120 min
  IKB with CHX Raw data: 20170 and 20220 and 20080 and 18790
  IKB with CHX Subtract reagent background: 8400 and 8450 and 8310 and 7020
  IkB Average: 8045
